From patent publication US20200216837A1, “DRUG-TARGET IDENTIFICATION BY RAPID SELECTION OF DRUG RESISTANCE MUTATIONS” (KATHOLIEKE UNIVERSITEIT LEUVEN, priority 2016, published 2020)

Key:
HAP1 cells = test: Cell viability assay of wild-type versus mutagenized drug-resistant cells; format: cell-based, human; conditions: for Drug sensitivity of HDR-edited cells carrying NAMPT mutations: NAMPT mutations reinstalled in native locus of parental cells by CRISPR-induced HDR; for Drug sensitivity of surviving colonies after tiling library transduction and drug selection: HAP1 Cas9 cells, FDA_target subpool B with bortezomib 14 days, or investigational library D with KPT-9274; for Drug sensitivity of colonies after Cas9/sgRNA targeting of the resistance hot spot: HAP1 cells, sgRNAs at XPO1 C528, KIF11 D130/A133, ERCC3 S162/Y163, NHEJ repair, 4 drug concentrations for selection; for Drug sensitivity of parental cells with a major protein variant reinstalled by CRISPR/Cas9-mediated HDR: XPO1 C528S,E529V,Q530H,K531I, KIF11 L132del, ERCC3 V166_K167insL in native locus
Description: Cells were transfected with the Neon Electroporation System after resuspension in Buffer R. DNA plasmids expressing the spCas9 or asCpf1 endonuclease and guiding RNA were added to a concentration of 37.5 ng/μL per plasmid and electroporated at 1,400-1,475V with 3 pulses of 10 ms. Two to three days after transfection, cells were treated with the respective drug to select for resistance over 7-14 days. Colonies were imaged with an IncuCyte© ZOOM (Essen Bioscience).
For HDR, a 123-134 bases long ssDNA oligonucleotide (850 ng) was added to the electroporation mixture in addition to the respective sgRNA and spCas9 expressing plasmids. Two days after electroporation, cells were treated with respective drugs for 5 days before imaging with an IncuCyte© ZOOM (Essen Bioscience). Following imaging, the HDR-template transfected cells were grown under drug selection for an additional week before any further experiments were performed.
Cell viability assays were performed by plating 3,000 HAP1, 5,000 HCT 116 or HL-60 cells in 96-well plates containing DMSO or a dilution of the test compound. Cells were incubated for 72 hours at 37° C. and 5% CO2. Cell viability was then assessed with the CellTiter 96® AQueous Non-Radioactive Cell Proliferation Assay (Promega) and colorimetric signals were measured with a Safire2™ (TECAN). Assays were performed in triplicate and each experiment was repeated at least once. Obtained values were adjusted with the background signal and divided by the DMSO control. Relative data values were then visualized and analyzed using a log-based 4 parameter model (GraphPad Prism).
For single guide drug resistance validation assays, 125.000 cells were transfected with Cas9 and the individual sgRNAs using the Neon Electroporation system as described above and plated into 6-well plates. Cells were treated 2-3 days after transfection with the respective compound for a period of 5-7 days, the medium was regularly refreshed and dead cells were washed away before imaging confluency using a live cell analysis system (Essen Bioscience, IncuCyte ZOOM®).

[1] = system: HAP1 cells stably expressing spCas9 or asCpf1; test: CRISPR mutagenesis scanning drug-target identification screen with tiling sgRNA/crRNA libraries; format: cell-based, human; conditions: 30 nM bortezomib, 300 nM KPT-9274 or 2 μM selinexor for 2 weeks
Description: FastQ files obtained after MiSeq sequencing were demultiplexed with the MiSeq Reporter software (Illumina). Demultiplexed and paired reads were trimmed, filtered and then aligned to the reference amplicon in Geneious (v9, Biomatters). To obtain haplotypes present in drug-resistant samples, bam files were analyzed with the CrispRVariants package run in RStudio by defining a 35-50 bp spanning region across the endonuclease cut site, as defined by pre-analysis of localized variants within Geneious. For this purpose, the CrispRVariants “readtotarget” input was run with parameters “upstream.snv” (30) and “downstream.snv” (15) on corresponding paired end sequencing reads to allow for haplotype determination. Haplotype nucleotide sequences were extracted with a small script. Nucleotide sequences were then visualized and mapped to the reference in Geneious v9 (Biomatters) and amino acid variants were determined. For visualization of the spectra of single nucleotide variants, NGS reads were aligned to the reference gene. Nucleotide occurrence frequencies were then determined in R on the aligned NGS reads using the deep SNV Bioconductor package. Sequences containing sgRNA/crRNAs from the lentiviral screens were trimmed from adapter sequences. Individual sgRNA/crRNA sequencing reads were then aligned to the pLCKO-U6-sgRNA vector within Geneious, counted with MaGeCK^18 and visualized in GraphPad Prism.
HAP1 cells stably expressing spCas9 or asCpf1 were resuspended in supplemented IMDM containing 8 μg/mL polybrene and transduced with lentiviral particles containing the desired sgRNA/crRNAs at a MOI of 0.25 (coverage of 5,000× per sgRNA for spCas9) or 0.35 (coverage of 15,000× per crRNA for asCpf1) by spinfection in 12-well plates. The next day cells were transferred to T150 cell flasks and selected with 1 μg/mL puromycin. Then 4 million (ispinesib/selinexor) or 10 million (KPT-9274/bortezomib) cells were harvested for DNA extraction and the remaining cells were treated for a period of 2 weeks with 8 nM ispinesib, 30 nM bortezomib, 300 nM KPT-9274 or 2 μM selinexor. […]

SMILES | Drug sensitivity of HDR-edited cells carrying NAMPT mutations (HAP1 cells) | Drug sensitivity of the original KPT-9274 resistant cell pool (HAP1 cells; cell pool surviving the library D mutagenesis screen with KPT-9274, compared to wild-type) | Target gene identified by enriched guide RNAs and resistance mutations [1] | Drug sensitivity of surviving colonies after tiling library transduction and drug selection (HAP1 cells) | Drug sensitivity of colonies after Cas9/sgRNA targeting of the resistance hot spot (HAP1 cells) | Drug sensitivity of parental cells with a major protein variant reinstalled by CRISPR/Cas9-mediated HDR (HAP1 cells) | Drug sensitivity of colonies after AsCpf1 tiling crRNA library and drug selection (HAP1 cells; HAP1 AsCpf1 cells, 10 genes, 1,100 crRNAs, selinexor 2 μM)
O=C(/C=C/c1cccnc1)NCCCCC1CCN(C(=O)c2ccccc2)CC1 [FK866] | cross-resistant | cross-resistant |  |  |  |  | 
Nc1ccc(/C=C/C(=O)NCc2cc3cc(-c4ccc(C(=O)N5CCC(F)(F)CC5)cc4)cc(-c4ccc(F)cc4)c3o2)cn1 [KPT-9274] | resistant |  | NAMPT | resistant |  |  | 
CC(C)C[C@H](NC(=O)[C@H](Cc1ccccc1)NC(=O)c1cnccn1)B(O)O [bortezomib] |  |  | PSMB5 | resistant |  |  | 
Cc1ccc(C(=O)N(CCCN)[C@@H](c2nc3cc(Cl)ccc3c(=O)n2Cc2ccccc2)C(C)C)cc1 [ispinesib] |  |  |  |  | resistant | resistant | 
O=C(/C=C\n1cnc(-c2cc(C(F)(F)F)cc(C(F)(F)F)c2)n1)NNc1cnccn1 [selinexor] |  |  | XPO1 |  | resistant | resistant | resistant
CC(C)[C@]12O[C@H]1[C@@H]1O[C@]13[C@]1(O[C@H]1C[C@H]1C4=C(CC[C@@]13C)C(=O)OC4)[C@@H]2O [triptolide] |  |  |  |  | resistant | resistant | 
